According to ChEMBL document CHEMBL1139180, “Design, synthesis, and bioactivity of novel inhibitors of E. coli aspartate transcarbamoylase” (Bioorg Med Chem Lett, 2007):

Experiment: Inhibition of Escherichia coli ATCase

First: O=C(CP(=O)(O)O)NC(CO)CO
Second: O=C(CP(=O)(O)O)NC(CO)CCO (stereo not given)
The IC50 of the first is 4.3-fold higher: 12500 µM for the first, 2900 µM for the second. The second is the more potent here.

First: NC(=O)C(CC(=O)O)NC(=O)CP(=O)(O)O (stereo not given)
Second: O=C(O)C[C@H](NC(=O)CP(=O)(O)O)C(=O)O [PALA]
The IC50 of the first is 1.6-fold higher: 0.087 µM for the first, 0.055 µM for the second. The second is the more potent here.

Compared with O=C(CP(=O)(O)O)NC(C(=O)O)C(=O)O, NC(=O)CC(NC(=O)CP(=O)(O)O)C(=O)O (stereo not given) is 190-fold lower in IC50: 43.5 µM for the first, 0.225 µM for the second. The second is the more potent here.

CC(O)C(NC(=O)CP(=O)(O)O)C(=O)O (stereo not given) and O=C(CP(=O)(O)O)NC(CO)C(=O)O (stereo not given) are within 1.5-fold of each other in IC50: 42 µM for the first, 30 µM for the second.

First: O=C(CP(=O)(O)O)NC(CCO)C(=O)O (stereo not given)
Second: O=C(CP(=O)(O)O)NC(Cc1ccc(O)cc1)C(=O)O (stereo not given)
The IC50 of the first is 16-fold lower: 3.9 µM for the first, 63 µM for the second. The first is the more potent here.
